From patent publication US11053204B2, “Pyrimidinyloxy benzene derivatives as herbicides” (FMC Corporation, priority 2015, dated 2021)

Columns and labels:
Type in all cases: in vivo
[1] = system: oat, wild (wild oat Avena fatua); assay: Test C preemergence, plant response rating
kochia (Kochia scoparia) = assay: Test C postemergence, plant response rating; settings: for Kochia plant response rating: scale 0 to 100 (0 no effect, 100 complete control)
In short: (§1)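 Visual injury score, 0 = no effect, 100 = complete control, assigned against untreated controls after 13 to 15 d in the greenhouse. Compounds were applied in a surfactant-containing non-phytotoxic solvent mix, preemergence to seeded loam/sand or silt loam soil, or postemergence to 1- to 4-leaf plants (2 to 18 cm).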

[2] = system: wheat (winter wheat, Triticum aestivum); assay: Test C postemergence, plant response rating
In short: as §1

[3] = system: chickweed (common chickweed, Stellaria media); assay: Test C postemergence, plant response rating; settings: for Chickweed plant response rating: scale 0 to 100 (0 no effect, 100 complete control)
In short: as §1

[4] = system: lambsquarters (Chenopodium album); assay: Test C postemergence, plant response rating; settings: for Lambsquarters plant response rating: scale 0 to 100 (0 no effect, 100 complete control)
In short: as §1

[5] = system: waterhemp (common waterhemp, Amaranthus rudis); assay: Test C postemergence, plant response rating
In short: as §1

[6] = system: foxtail, giant (giant foxtail, Setaria faberii); assay: Test C postemergence, plant response rating; settings: for Foxtail, Giant plant response rating: scale 0 to 100 (0 no effect, 100 complete control)
In short: as §1

[7] = system: blackgrass (Alopecurus myosuroides); assay: Test C postemergence, plant response rating; settings: for Plant response rating, Blackgrass: scale 0 to 100; for Blackgrass plant response rating: scale 0 to 100 (0 no effect, 100 complete control)
In short: as §1

[8] = system: oat, wild (wild oat Avena fatua); assay: Test C postemergence, plant response rating; settings: for Oat, Wild plant response rating: scale 0 to 100 (0 no effect, 100 complete control)
In short: as §1

[9] = system: velvetleaf (Abutilon theophrasti); assay: Test C postemergence, plant response rating
In short: as §1

soybean (Glycine max) = assay: Test C postemergence, plant response rating; settings: for Soybean plant response rating: scale 0 to 100 (0 no effect, 100 complete control)
In short: as §1

[10] = system: oilseed rape (Brassica napus); assay: Test C postemergence, plant response rating; settings: for Oilseed Rape plant response rating: scale 0 to 100 (0 no effect, 100 complete control)
In short: as §1

[11] = system: morningglory (Ipomoea coccinea); assay: Test C postemergence, plant response rating; settings: for Morningglory plant response rating: scale 0 to 100 (0 no effect, 100 complete control)
In short: as §1

corn (Zea mays) = assay: Test C postemergence, plant response rating; settings: for Corn plant response rating: scale 0 to 100 (0 no effect, 100 complete control)
In short: as §1

[12] = system: ragweed (common ragweed, Ambrosia elatior); assay: Test C postemergence, plant response rating; settings: for Ragweed plant response rating: scale 0 to 100 (0 no effect, 100 complete control)
In short: as §1

[13] = system: nutsedge, yellow (yellow nutsedge, Cyperus esculentus); assay: Test C postemergence, plant response rating; settings: for Nutsedge, Yellow plant response rating: scale 0 to 100 (0 no effect, 100 complete control)
In short: as §1

[14] = system: galium (catchweed bedstraw, Galium aparine); assay: Test C postemergence, plant response rating; settings: for Galium plant response rating: scale 0 to 100 (0 no effect, 100 complete control)
In short: as §1

[15] = system: surinam grass (Brachiaria decumbens); assay: Test C preemergence, plant response rating
[16] = system: wild poinsettia (Euphorbia heterophylla); assay: Test C preemergence, plant response rating
[17] = system: pigweed, palmer (palmer pigweed, Amaranthus palmeri); assay: Test C preemergence, plant response rating
[18] = system: windgrass (Apera spica-venti); assay: Test C preemergence, plant response rating
[19] = 125 g ai/ha, scale 0 to 100 (0 no effect, 100 complete control)

SMILES: FC(F)(F)CCCc1c(Br)cccc1Oc1ncc(Cl)cn1 [Compound 89]
- Plant response rating, Oat, Wild ([1]; 31 g ai/ha, scale 0 to 100): 10
- Plant response rating, Oat, Wild ([1]; 62 g ai/ha, scale 0 to 100): 30
- Plant response rating, Oat, Wild ([1]; 125 g ai/ha, scale of 0 to 100): 10
- Plant response rating, Kochia (kochia (Kochia scoparia); 16 g ai/ha, scale of 0 to 100): 70
- Plant response rating, Kochia (kochia (Kochia scoparia); 31 g ai/ha, scale 0 to 100): 75
- Kochia plant response rating (kochia (Kochia scoparia); 62 g ai/ha): 80
- Kochia plant response rating (kochia (Kochia scoparia); 125 g ai/ha): 95
- Plant response rating, Wheat ([2]; 16 g ai/ha, scale of 0 to 100): 0
- Plant response rating, Wheat ([2]; 31 g ai/ha, scale 0 to 100): 10
- Wheat plant response rating [2, 19]: 15
- Plant response rating, Chickweed ([3]; 16 g ai/ha, scale of 0 to 100): 65
- Plant response rating, Chickweed ([3]; 31 g ai/ha, scale 0 to 100): 95
- Chickweed plant response rating ([3]; 62 g ai/ha): 85
- Chickweed plant response rating ([3]; 125 g ai/ha): 100
- Plant response rating, Lambsquarters ([4]; 16 g ai/ha, scale of 0 to 100): 70
- Plant response rating, Lambsquarters ([4]; 31 g ai/ha, scale 0 to 100): 75
- Lambsquarters plant response rating ([4]; 62 g ai/ha): 100
- Lambsquarters plant response rating ([4]; 125 g ai/ha): 100
- Plant response rating, Waterhemp ([5]; 16 g ai/ha, scale of 0 to 100): 70
- Plant response rating, Waterhemp ([5]; 31 g ai/ha, scale 0 to 100): 70
- Waterhemp plant response rating [5, 19]: 95
- Plant response rating, Foxtail, Giant ([6]; 16 g ai/ha, scale of 0 to 100): 10
- Plant response rating, Foxtail, Giant ([6]; 31 g ai/ha, scale 0 to 100): 10
- Foxtail, Giant plant response rating ([6]; 62 g ai/ha): 10
- Foxtail, Giant plant response rating ([6]; 125 g ai/ha): 20
- Plant response rating, Blackgrass ([7]; 16 g ai/ha): 10
- Plant response rating, Blackgrass ([7]; 31 g ai/ha): 15
- Blackgrass plant response rating ([7]; 62 g ai/ha): 30
- Blackgrass plant response rating ([7]; 125 g ai/ha): 45
- Plant response rating, Oat, Wild ([8]; 16 g ai/ha, scale of 0 to 100): 15
- Plant response rating, Oat, Wild ([8]; 31 g ai/ha, scale 0 to 100): 10
- Oat, Wild plant response rating ([8]; 62 g ai/ha): 40
- Oat, Wild plant response rating ([8]; 125 g ai/ha): 30
- Plant response rating, Velvetleaf ([9]; 16 g ai/ha, scale of 0 to 100): 20
- Plant response rating, Velvetleaf ([9]; 31 g ai/ha, scale 0 to 100): 35
- Velvetleaf plant response rating [9, 19]: 70
- Plant response rating, Soybean (soybean (Glycine max); 16 g ai/ha, scale of 0 to 100): 35
- Plant response rating, Soybean (soybean (Glycine max); 31 g ai/ha, scale 0 to 100): 40
- Soybean plant response rating (soybean (Glycine max); 62 g ai/ha): 65
- Soybean plant response rating (soybean (Glycine max); 125 g ai/ha): 70
- Plant response rating, Oilseed Rape ([10]; 16 g ai/ha, scale of 0 to 100): 60
- Plant response rating, Oilseed Rape ([10]; 31 g ai/ha, scale 0 to 100): 95
- Oilseed Rape plant response rating ([10]; 62 g ai/ha): 90
- Oilseed Rape plant response rating ([10]; 125 g ai/ha): 100
- Plant response rating, Morningglory ([11]; 16 g ai/ha, scale of 0 to 100): 5
- Plant response rating, Morningglory ([11]; 31 g ai/ha, scale 0 to 100): 15
- Morningglory plant response rating ([11]; 62 g ai/ha): 25
- Morningglory plant response rating ([11]; 125 g ai/ha): 55
- Plant response rating, Corn (corn (Zea mays); 16 g ai/ha, scale of 0 to 100): 15
- Plant response rating, Corn (corn (Zea mays); 31 g ai/ha, scale 0 to 100): 15
- Corn plant response rating (corn (Zea mays); 62 g ai/ha): 15
- Corn plant response rating (corn (Zea mays); 125 g ai/ha): 20
- Plant response rating, Ragweed ([12]; 16 g ai/ha, scale of 0 to 100): 0
- Plant response rating, Ragweed ([12]; 31 g ai/ha, scale 0 to 100): 5
- Ragweed plant response rating ([12]; 62 g ai/ha): 10
- Ragweed plant response rating ([12]; 125 g ai/ha): 25
- Plant response rating, Nutsedge, Yellow ([13]; 16 g ai/ha, scale of 0 to 100): 0
- Plant response rating, Nutsedge, Yellow ([13]; 31 g ai/ha, scale 0 to 100): 0
- Nutsedge, Yellow plant response rating ([13]; 62 g ai/ha): 0
- Nutsedge, Yellow plant response rating ([13]; 125 g ai/ha): 5
- Plant response rating, Galium ([14]; 16 g ai/ha, scale of 0 to 100): 75
- Plant response rating, Galium ([14]; 31 g ai/ha, scale 0 to 100): 75
- Galium plant response rating ([14]; 62 g ai/ha): 80
- Galium plant response rating ([14]; 125 g ai/ha): 90
- Plant response rating, Surinam Grass ([15]; 31 g ai/ha, scale 0 to 100): 35
- Plant response rating, Surinam Grass ([15]; 62 g ai/ha, scale 0 to 100): 65
- Plant response rating, Surinam Grass ([15]; 125 g ai/ha, scale of 0 to 100): 75
- Plant response rating, Poinsettia, Wild ([16]; 31 g ai/ha, scale 0 to 100): 0
- Plant response rating, Poinsettia, Wild ([16]; 62 g ai/ha, scale 0 to 100): 20
- Plant response rating, Poinsettia, Wild ([16]; 125 g ai/ha, scale of 0 to 100): 40
- Plant response rating, Pigweed, Palmer ([17]; 31 g ai/ha, scale 0 to 100): 70
- Plant response rating, Pigweed, Palmer ([17]; 62 g ai/ha, scale 0 to 100): 90
- Plant response rating, Pigweed, Palmer ([17]; 125 g ai/ha, scale of 0 to 100): 98
- Plant response rating, Windgrass ([18]; 31 g ai/ha, scale 0 to 100): 50
- Plant response rating, Windgrass ([18]; 62 g ai/ha, scale 0 to 100): 65
- Plant response rating, Windgrass ([18]; 125 g ai/ha, scale of 0 to 100): 100
